For data set [1], the system named is olfactory system. Description: WUTC Odor Threshold Test (yes-no detection of odorant dilutions in water, signal detection analysis). On the set-up: Estimated odorant threshold, Mean / Mean estimated threshold / Estimated odorant threshold, Minimum: unit not given here. The note with it: for Threshold: combined trials of all 33 subjects, logistic regression, p=0.5; for Estimated threshold compared with literature value: in vivo; for Estimated odorant threshold, Maximum: maximum of individual participant thresholds, in ppm; for Estimated odorant threshold, Mean: mean of individual participant thresholds; for Estimated odorant threshold, Minimum: minimum of individual participant thresholds. Type of data set: in vivo, human. An excerpt: The present study involved the creation and study of a new test of olfactory ability, deemed the Wheeler University of Tennessee, Chattanooga (WUTC) Odor Threshold Test. This test was developed building upon the methodology behind signal detection theory as it allowed for multiple measures of olfactory ability to be calculated from a single test. These measures are sensitivity, response-bias, and threshold. Unlike currently available threshold tests, the WUTC Odor Threshold Test utilizes a randomized, multiple odor administration along with the presentation of blank concentrations.
A total of thirty three participants (N=33), collected from the UTC campus, were administered the WUTC threshold test.
To make the test, odorant molecules were first dissolved in a purified H2O solvent following their individual levels of solubility to create standard solutions. These standards were the highest concentration for each odorant and the base from which all successive dilutions were made. Liquid odorants ethanol, pinene, and isoamyl acetate were diluted by volume whereas para-cresol and vanillin were diluted by mass. Each standard was rounded to the nearest μL. A total of nine concentrations were made from each standard solution and diluted at a ratio of 1:2. The highest concentration for each odor as well as concentration ranges were chosen based on literature threshold values and a small, preliminary testing period. Solutions (10 mL) of each odorant were diluted and contained in sterilized and dried glass vials with black, screw-top lids (see FIG. 12).
Blanks were made using 10 mL of the same purified H2O used as a solvent for the other odorants. The final test contained 45 vials with odorant concentrations and nine blanks for a total of 54 vials. Tests were remade after either one month or ten administrations had been reached to avoid any amount of loss of odor strength that could result from extended shelf time or exposure to air during administrations. Before reproducing the test, vials underwent sterilization and drying procedures.
Each subject was instructed to complete the provided demographic form (see below). […] Each participant was then seated in a cushioned, high backed chair facing away from a table where each testing vial was placed. In a brief tutorial to the test, subjects were instructed that they would be presented with a number of vials, some containing odors and some not, one at a time. Subjects were then told that they would only be required to smell the contents of the vial and verbally give a “yes” or “no” answer as to whether they detected anything. […] Once the subject felt comfortable with the instructions presented in this tutorial, the actual test was started.
Following a randomly generated number sequence for each subject, a seated test administrator would select the correspondingly numbered test vial for each trial, place it in tongs, and hand it to a second administrator that, like the participant, was facing away from the administration table. […] The “yes” or “no” response given by the subject was recorded by the first administrator and the vial and tongs were returned to him/her by the second administrator. This procedure was repeated for each of the odorant tubes in the test with each tube presented to the participant twice.

In data set [2] the test system is trigeminal nerve. As to conditions: cited from earlier work.
In data set [3] the test system is premature newborn infants. The note with it: olfactory stimulation; cited from earlier work.
Where [4] appears, read: concentration 1 (lowest), combined participant trials.
[5] abbreviates: concentration 2, combined participant trials.
[6] abbreviates: concentration 3, combined participant trials.
Where [7] appears, read: concentration 4, combined participant trials.
[8] abbreviates: concentration 5, combined participant trials.
The mark [9] stands for this setting: concentration 6, combined participant trials.
Where [10] appears, read: concentration 7, combined participant trials.
Where [11] appears, read: concentration 8, combined participant trials.
Setting [12] is: concentration 9 (highest), combined participant trials.

Where “and” joins values, the source holds several entries; their conditions need not be identical. Equal entries are not always repeated.

Consider `CCO` [Ethanol, ethanol], for which the Mean estimated threshold in data set [1] (African Americans) is 112.069; in data set [1] (Caucasians) it was 344.968; in data set [1] (participants with headaches (N=8)) it was 396.631; in data set [1] (participants without headaches (N=12)) it was 155.260. For the same compound, in data set [1], the Threshold is recorded as 263.750 ppm. Further, the “Mean A′” value in data set [1] (setting [4]) is reported as 0.757; in data set [1] (setting [5]) it was 0.716; in data set [1] (setting [6]) it was 0.514; in data set [1] (setting [7]), 0.741; in data set [1] (setting [8]), 0.561; in data set [1] (setting [9]), 0.766. The “Mean A′” value in data set [1] (setting [10]) is listed as 0.668; in data set [1] (setting [11]), 0.789; in data set [1] (setting [12]), 0.804. The “Mean d′” value in data set [1] (setting [4]) is listed as 0.898; in data set [1] (setting [5]), 0.704; in data set [1] (setting [6]), 0.035; in data set [1] (setting [7]), 0.819; in data set [1] (setting [8]), 0.16; in data set [1] (setting [9]) it was 0.941. For the same compound, the “Mean d′” value is given as 0.513 in data set [1] (setting [10]), 1.066 in data set [1] (setting [11]) and 1.154 in data set [1] (setting [12]). For the same compound, the “Estimated threshold compared with literature value” in data set [1] was “at or within literature values”. Also, in data set [1], the “Estimated odorant threshold, Maximum” value was 942.747. Also, the “Estimated odorant threshold, Mean” value in data set [1] is reported as 251.808. In data set [1], the “Estimated odorant threshold, Minimum” value was 1.057. Moreover, the “Concentration causing irritation of the trigeminal nerve” value in data set [2] is given as “over 1000 ppm”.

For the compound `CC(=O)OCCC(C)C` [Isoamyl Acetate, isoamyl acetate], in data set [1], the Threshold was 38.274 ppm. In addition, the “Mean A′” value in data set [1] (setting [4]) is 0.407; in data set [1] (setting [5]), 0.424; in data set [1] (setting [6]), 0.424; in data set [1] (setting [7]), 0.478; in data set [1] (setting [8]), 0.716; in data set [1] (setting [9]) it was 0.716. Moreover, the “Mean A′” value in data set [1] (setting [10]) was 0.796; in data set [1] (setting [11]) it was 0.826; in data set [1] (setting [12]), 0.781. The “Mean d′” value in data set [1] (setting [4]) was −0.249; in data set [1] (setting [5]), −0.198; in data set [1] (setting [6]) it was −0.198; in data set [1] (setting [7]), −0.053; in data set [1] (setting [8]), 0.704; in data set [1] (setting [9]) it was 0.704. For the same compound, the “Mean d′” value in data set [1] (setting [10]) is recorded as 1.11; in data set [1] (setting [11]), 1.299; in data set [1] (setting [12]) it was 1.024. The “Estimated threshold compared with literature value” in data set [1] is recorded as “below its literature value”. Also, the “Estimated odorant threshold, Maximum” value in data set [1] is given as 65.102. In addition, in data set [1], the “Estimated odorant threshold, Mean” value is 13.935. Further, in data set [1], the “Estimated odorant threshold, Minimum” value is 0.513.

Take `CC1=CCC2CC1C2(C)C` [Pinene, L-α-pinene]: the Threshold in data set [1] is reported as 275.598 ppm. Besides, the “Mean A′” value in data set [1] (setting [4]) is reported as 0.407; in data set [1] (setting [5]), 0.757; in data set [1] (setting [6]), 0.561; in data set [1] (setting [7]), 0.514; in data set [1] (setting [8]), 0.668; in data set [1] (setting [9]), 0.724. In addition, the “Mean A′” value was 0.847 in data set [1] (setting [10]), 0.901 in data set [1] (setting [11]) and 0.875 in data set [1] (setting [12]). The “Mean d′” value is recorded as −0.249 in data set [1] (setting [4]); 0.898 in data set [1] (setting [5]); 0.16 in data set [1] (setting [6]); 0.035 in data set [1] (setting [7]); 0.513 in data set [1] (setting [8]); 0.742 in data set [1] (setting [9]). Further, the figures for the “Mean d′” value in data set [1] (setting [10]), in data set [1] (setting [11]) and in data set [1] (setting [12]) were 1.458, 2.097 and 1.72, respectively. In addition, the “Estimated threshold compared with literature value” in data set [1] is “greater than values found”. For the same compound, the “Estimated odorant threshold, Maximum” value in data set [1] is reported as 795.338. The “Estimated odorant threshold, Mean” value in data set [1] is listed as 251.225. Besides, the “Estimated odorant threshold, Minimum” value in data set [1] is listed as 0.778. In data set [2], the “Activity as an irritant” value is “nearly inactive as an irritant”.

Regarding `COc1cc(C=O)ccc1O` [Vanillin, vanillin], the Threshold in data set [1] is 112.426 ppm. In addition, the “Mean A′” value is 0.39 in data set [1] (setting [4]); 0.478 in data set [1] (setting [5]); 0.531 in data set [1] (setting [6]); 0.625 in data set [1] (setting [7]); 0.561 in data set [1] (setting [8]); 0.678 in data set [1] (setting [9]). Further, the “Mean A′” value in data set [1] (setting [10]) was 0.781; in data set [1] (setting [11]), 0.796; in data set [1] (setting [12]) it was 0.888. The “Mean d′” value was −0.302 in data set [1] (setting [4]); −0.053 in data set [1] (setting [5]); 0.077 in data set [1] (setting [6]); 0.359 in data set [1] (setting [7]); 0.16 in data set [1] (setting [8]); 0.55 in data set [1] (setting [9]). Further, the “Mean d′” value is on record as 1.024 in data set [1] (setting [10]), 1.11 in data set [1] (setting [11]) and 1.885 in data set [1] (setting [12]). Besides, the “Estimated threshold compared with literature value” in data set [1] is “greater than values found”. The “Estimated odorant threshold, Maximum” value in data set [1] is given as 339.932. Moreover, the “Estimated odorant threshold, Mean” value in data set [1] was 119.978 and 19.978. Also, the “Estimated odorant threshold, Minimum” value in data set [1] was 2.619. Besides, the figures for the Mean estimated threshold in data set [1] (subjects with asthma (N=8)) and in data set [1] (subjects without asthma (N=18)) were 207.137 and 86.084, respectively. Also, the Effect on apnea result in data set [3] was “significantly prevent apnea”.

Turning to `CCCCO` [n-butanol, reference compound], the “Concentration causing irritation of the trigeminal nerve” value in data set [2] is reported as “approximately 200 ppm”.

On to `Cc1ccc(O)cc1` [para-cresol], for which the Threshold in data set [1] is recorded as 1.058 ppm. Further, the “Mean A′” value is reported as 0.356 in data set [1] (setting [4]); 0.561 in data set [1] (setting [5]); 0.614 in data set [1] (setting [6]); 0.614 in data set [1] (setting [7]); 0.313 in data set [1] (setting [8]); 0.804 in data set [1] (setting [9]). For the same compound, the results for the “Mean A′” value in data set [1] (setting [10]), in data set [1] (setting [11]) and in data set [1] (setting [12]) were 0.847, 0.84 and 0.908, respectively. For the same compound, the “Mean d′” value is −0.416 in data set [1] (setting [4]); 0.16 in data set [1] (setting [5]); 0.32 in data set [1] (setting [6]); 0.32 in data set [1] (setting [7]); 0.475 in data set [1] (setting [8]); 1.154 in data set [1] (setting [9]). In addition, the “Mean d′” value was 1.458 in data set [1] (setting [10]), 1.403 in data set [1] (setting [11]) and 2.246 in data set [1] (setting [12]). In data set [1], the “Estimated threshold compared with literature value” is “at or within literature values”. The “Estimated odorant threshold, Maximum” value in data set [1] was 5.28. In addition, in data set [1], the “Estimated odorant threshold, Mean” value is 1.340. In addition, the “Estimated odorant threshold, Minimum” value in data set [1] is listed as 0.005.

The values above are taken from patent publication US20150177202A1, “ODOR THRESHOLD TEST” (University of Tennessee Research Foundation, priority 2013, published 2015).
